System: MHCC-LM3 cells
Test: Fibronectin attachment with recombinant Agrin coat, Western blot
Format: cell-based, human
Conditions: Agrin depleted MHCC-LM3 cells; fibronectin supplemented with 20 μg/ml recombinant Agrin as ECM coat; 2 h post plating
Description: 72 h post transfections, cell lysates were analysed for indicated proteins; (b and c) show Western blot analysis of control or Agrin depleted MHCC-LM3 cells, which were serum starved overnight, trypsinized and plated on fibronectin or fibronectin supplemented with 20 μg/ml recombinant Agrin coated surface. […] Representative images under 20× magnification are shown and results quantitated using Image J software (P value=0.005). Thus, FIG. 6 validates the role of Agrin as an ECM sensor regulating focal adhesion, cell spreading and invasion to affect EMT program in HCC cell lines.
Briefly, culture plates were coated with 10 μg/ml fibronectin for 1 h at 37° C. Either control or Agrin knockdown cells (2*10^3 cells/ml) were trypsinized and plated on coated dishes. Adhered cells were analysed either by live cell imaging for morphological changes at indicated time-points or lysates were collected and subjected to Western blot analysis.

recombinant Agrin: Pure recombinant Agrin protein obtained from MyBiosource
activation of focal adhesion kinase and Arp2/3: substantially increased
